Data reported in patent publication US10150760B2, “Compounds for use in preparing heterocyclic triazole agonists of the APJ receptor” (AMGEN INC., priority 2016, dated 2018).

Biological target: human APJ receptor (Homo sapiens (Human), UniProt P35414)
Assay: [35S]GTPγS binding assay on membranes from CHO cells stably expressing human APJ receptor
Assay type: biochemical
Details: read-out: Activity hAPJ SPA EC50 IP
Method in brief: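 Agonist-driven [35S]GTPγS (0.2 nM) binding was measured over 90 min at room temperature on human APJ-expressing CHO membranes with bead capture, in buffer containing 3 μM GDP, 200 mM NaCl and 5 mM MgCl2 (pH 7.5). Excess unlabelled GTPγS (100 μM) gave nonspecific signal; EC50 from non-linear fits.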

human APJ receptor, sequence (P35414 whole entry): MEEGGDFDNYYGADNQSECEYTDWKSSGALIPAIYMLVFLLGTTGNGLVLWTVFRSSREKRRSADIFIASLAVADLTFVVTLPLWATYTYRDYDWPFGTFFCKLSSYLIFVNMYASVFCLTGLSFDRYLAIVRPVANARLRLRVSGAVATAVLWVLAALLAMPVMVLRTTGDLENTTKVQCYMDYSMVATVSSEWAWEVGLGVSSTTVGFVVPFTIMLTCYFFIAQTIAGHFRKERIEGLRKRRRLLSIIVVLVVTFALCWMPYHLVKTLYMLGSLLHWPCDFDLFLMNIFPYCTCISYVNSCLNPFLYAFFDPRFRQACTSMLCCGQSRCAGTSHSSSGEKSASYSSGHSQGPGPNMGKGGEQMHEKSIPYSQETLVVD

| EC50 | Molecule |
| --- | --- |
| 100 nM | (2S,3R)-N-(4-(1,3-dimethoxy-2-propanyl)-5-((2R,5R)-5-methyltetrahydro-2-furanyl)-4H-1,2,4-triazol-3-yl)-3-(5-fluoro-2-pyrimidinyl)-2-butanesulfonamide or (2S,3R)-N-(4-(1,3-dimethoxy-2-propanyl)-5-((2S,5S)-5-methyltetrahydro-2-furanyl)-4H-1,2,4-triazol-3-yl)-3-(5-fluoro-2-pyrimidinyl)-2-butanesulfonamide [Example 368.0] |
| 230 nM | (2S,3R)-3-(5-chloropyrimidin-2-yl)-N-(4-(2,6-dimethoxyphenyl)-5-((S)-3-oxoisoindolin-1-yl)-4H-1,2,4-triazol-3-yl)butane-2-sulfonamide or (2S,3R)-3-(5-chloropyrimidin-2-yl)-N-(4-(2,6-dimethoxyphenyl)-5-((R)-3-oxoisoindolin-1-yl)-4H-1,2,4-triazol-3-yl)butane-2-sulfonamide [Example 234.0] |
| 70 nM | (1R,2S)-1-(5-chloropyrimidin-2-yl)-1-methoxy-N-(5-((2S,5S)-5-methyltetrahydrofuran-2-yl)-4-tetrahydro-2H-pyran-4-yl)-4H-1,2,4-triazol-3-yl)propane-2-sulfonamide or (1R,2S)-1-(5-chloropyrimidin-2-yl)-1-methoxy-N-(5-((2R,5R)-5-methyltetrahydrofuran-2-yl)-4-(tetrahydro-2H-pyran-4-yl)-4H-1,2,4-triazol-3-yl)propane-2-sulfonamide [Example 225.0] |

The remaining lines, values behind:

| Molecule | EC50 |
| --- | --- |
| COc1cccc(OC)c1-n1c(NS(=O)(=O)[C@@H](C)[C@@H](OC(C)C)c2ncc(C)cn2)nnc1[C@H]1CCC(=O)N1C (single isomer, unassigned) [Example 417.0, (1S,2S)-N-(4-(2,6-dimethoxyphenyl)-5-((2R)-1-methyl-5-oxo-2-pyrrolidinyl)-4H-1,2,4-triazol-3-yl)-1-(5-methyl-2-pyrimidinyl)-1-(2-propanyloxy)-2-propanesulfonamide or (1S,2S)-N-(4-(2,6-dimethoxyphenyl)-5-((2S)-1-methyl-5-oxo-2-pyrrolidinyl)-4H-1,2,4-triazol-3-yl)-1-(5-methyl-2-pyrimidinyl)-1-(2-propanyloxy)-2-propanesulfonamide] | 190 nM |
| (2S,3R)-N-(4-((1r,2R,6S)-2,6-dimethoxycyclohexyl)-5-((3S)-tetrahydro-3-furanyl)-4H-1,2,4-triazol-3-yl)-3-(5-methyl-2-pyrimidinyl)-2-butanesulfonamide or (2S,3R)-N-(4-((1r,2R,6S)-2,6-dimethoxycyclohexyl)-5-((3R)-tetrahydro-3-furanyl)-4H-1,2,4-triazol-3-yl)-3-(5-methyl-2-pyrimidinyl)-2-butanesulfonamide [Example 5.0] | > 4200 nM |
| CO[C@H](c1ncc(Cl)cn1)[C@H](C)S(=O)(=O)Nc1nnc([C@H]2CCCOC2)n1C1(C)CC1 (single isomer, unassigned) [Example 127.0, (1R,2S)-1-(5-chloropyrimidin-2-yl)-1-methoxy-N-(4-(1-methylcyclopropyl)-5-((R)-tetrahydro-2H-pyran-3-yl)-4H-1,2,4-triazol-3-yl)propane-2-sulfonamide or (1R,2S)-1-(5-chloropyrimidin-2-yl)-1-methoxy-N-(4-(1-methylcyclopropyl)-5-((S)-tetrahydro-2H-pyran-3-yl)-4H-1,2,4-triazol-3-yl)propane-2-sulfonamide] | 7.7 nM |
| (1R,2S)-1-(5-chloropyrimidin-2-yl)-1-methoxy-N-(4-(1-methylcyclopropyl)-5-((2S,5S)-5-methyltetrahydrofuran-2-yl)-4H-1,2,4-triazol-3-yl)propane-2-sulfonamide or (1R,2S)-1-(5-chloropyrimidin-2-yl)-1-methoxy-N-(4-(1-methylcyclopropyl)-5-((2R,5R)-5-methyltetrahydrofuran-2-yl)-4H-1,2,4-triazol-3-yl)propane-2-sulfonamide [Example 199.0] | 2.7 nM |
